Bounds are passed on as bounds.

This experiment deals with Bile salt export pump (Homo sapiens, UniProt O95342). The class given is ADME.

One may read the IC50 as the concentration at which inhibition is half-maximal. On to `COc1cc(Nc2ncc(F)c(Nc3ccc4c(n3)NC(=O)C(C)(C)O4)n2)cc(OC)c1OC` [R-406], for which the IC50 was found to be 197 µM.

In the case of `CCOC(N)=O`, the IC50 is more than 1000 µM.

Take `COC(=O)[C@H]1[C@H]2C[C@@H]3c4[nH]c5cc(OC)ccc5c4CCN3C[C@H]2C[C@@H](OC(=O)c2cc(OC)c(OC)c(OC)c2)[C@@H]1OC` [RESERPINE]: the 50% inhibitory concentration (IC50) is less than 10 µM.

With `CCc1nc(N)nc(N)c1-c1ccc(Cl)cc1` [PYRIMETHAMINE], the IC50 was 200 µM.

For the compound `O=C(NCC1CCCCN1)c1cc(OCC(F)(F)F)ccc1OCC(F)(F)F` (stereo not drawn) [FLECAINIDE], the IC50 came out at 218 µM.

With `CC(C)(Sc1cc(C(C)(C)C)c(O)c(C(C)(C)C)c1)Sc1cc(C(C)(C)C)c(O)c(C(C)(C)C)c1` [PROBUCOL], the IC50 was more than 1000 µM.

On to `O=C(O)c1c(Cl)c(Cl)c(Cl)c(Cl)c1-c1c2cc(I)c(=O)c(I)c-2oc2c(I)c(O)c(I)cc12` [ROSE BENGAL SODIUM], for which the IC50 is less than 10 µM.

Consider `CCOc1ccc2nc3cc(N)ccc3c(N)c2c1` [ETHACRIDINE], for which the IC50 stood at 43.5 µM.

As for `N=C(N)N1CCc2ccccc2C1` [DEBRISOQUIN], the IC50 is more than 952 µM.

For the compound `C1CCc2nnnn2CC1` [PENTYLENETETRAZOL], the IC50 was more than 1000 µM.

With `CCCc1c2nc(C(=O)O)cc(O)c2cc2c(=O)cc(C(=O)O)oc12`, the IC50 is more than 1000 µM.

For the compound `COc1ccccc1Oc1c(NS(=O)(=O)c2ccc(C(C)(C)C)cc2)nc(-c2ncccn2)nc1OCCO` [BOSENTAN], the IC50 was less than 25.3 µM.

As to `Oc1ccc(CCNCCCCCCNCCc2ccccc2)cc1O` [DOPEXAMINE], the IC50 was more than 1000 µM.

With `CC[C@@H](CO)NC(=O)[C@@H]1C=C2c3cccc4c3c(cn4C)C[C@H]2N(C)C1` [METHYSERGIDE], the 50% inhibitory concentration (IC50) stood at 33.1 µM.

On to `O=C(O)c1cc2cc(O)ccc2n1Cc1ccc(Cl)c(C(F)(F)F)c1`, for which the IC50 was found to be 18.5 µM.

Turning to `COc1cc2nc(N3CCN(C(=O)c4ccco4)CC3)nc(N)c2cc1OC` [PRAZOSIN], the IC50 amounted to 172 µM.

As for `Nc1ccc(S(=O)(=O)Nc2ccc(Cl)nn2)cc1` [SULFACHLORPYRIDAZINE], the IC50 is more than 1000 µM.

Take `C[C@]12CCC(=O)C=C1CC[C@@H]1[C@@H]2[C@@H](O)C[C@@]2(C)[C@H]1CC[C@]2(O)C(=O)CO` [HYDROCORTISONE]: the IC50 stood at 252 µM.

Regarding `C/C=C/C(=O)N(CC)c1ccccc1C`, the IC50 is 110 µM.

Consider `Cc1ccc(/C(=C\CN2CCCC2)c2ccccn2)cc1` [TRIPROLIDINE], for which the IC50 amounted to 291 µM.

In the case of `Cc1onc(-c2c(F)cccc2Cl)c1C(=O)N[C@@H]1C(=O)N2[C@@H]1SC(C)(C)[C@@H]2C(=O)O` [FLOXACILLIN], the IC50 was less than 10 µM.

As to `O=C(NO)C(CCc1ccccc1)CS(=O)(=O)N1CCN(c2ccc(F)cc2)CC1` (stereo not drawn), the IC50 is less than 10 µM.

For the compound `Cc1cc(C(C)(C)C)cc(C)c1CC1=NCCN1` [XYLOMETAZOLINE], the IC50 is more than 796 µM.

As to `O=C(O)CCC(=O)Nc1ccc(S(=O)(=O)Nc2nccs2)cc1` [SUCCINYLSULFATHIAZOLE], the IC50 was more than 1000 µM.

`CCN(CC)C(=O)c1ccc(C(=C2CCNCC2)c2ccccc2)cc1`: the IC50 is 106 µM.

For the compound `CCCCCC(C)(O)/C=C/[C@@H]1[C@@H](C/C=C\CCCC(=O)O)[C@@H](O)C[C@H]1O` (stereo partly drawn), the IC50 was 329 µM.

In the case of `CCN(CC)CCNC(=O)c1ccc(NC(C)=O)cc1` [ACECAINIDE], the IC50 was more than 1000 µM.

In the case of `Oc1ccc(Cl)c2cccnc12` [CLOXYQUIN], the IC50 is 357 µM.

As to `COc1ccc2cc(C(C)CO)ccc2c1` (stereo not drawn), the IC50 was 97.6 to 98 µM.

Regarding `CCCCC[C@H](O)/C=C/[C@H]1[C@H](O)CC(=O)[C@@H]1C/C=C\CCCC(=O)O` [DINOPROSTONE], the IC50 was more than 1000 µM.

On to `CC(=O)Nc1c(I)c(C(=O)N[C@H]2C(O)O[C@H](CO)[C@@H](O)[C@@H]2O)c(I)c(N(C)C(C)=O)c1I` (stereo partly drawn) [METRIZAMIDE], for which the IC50 is more than 1000 µM.

For the compound `O=C(O)c1cc2sccc2n1Cc1ccc(Cl)c(Cl)c1`, the IC50 came out at 13.7 µM.

Turning to `Cc1ccc(NC(=O)c2cccc3c2oc2ccccc23)cc1NC(=O)c1cccc(CN2CCN(C)CC2)c1`, the IC50 is less than 10 µM.

Consider `CC12CC3CC(C)(C1)CC(N)(C3)C2` [MEMANTINE], for which the IC50 is more than 1000 µM.

Turning to `O=c1[nH]c(=O)n([C@H]2C[C@H](O)[C@@H](CO)O2)cc1C(F)(F)F` [TRIFLURIDINE], the IC50 is more than 1000 µM.

For the compound `CCN(CC)CCCC(C)Nc1c2ccc(Cl)cc2nc2ccc(OC)cc12` (stereo not drawn) [QUINACRINE], the IC50 is 101 µM.

With `CC(=O)NC[C@H]1CN(c2ccc(-n3cnc(Br)c3)c(F)c2)C(=O)O1`, the IC50 was determined as 349 µM.

`CC(C)NCC(O)COc1ccc(CCOCC2CC2)cc1` (stereo not drawn) [BETAXOLOL]: the IC50 was more than 1000 µM.

As to `C[C@H]1O[C@@H](O[C@H]2[C@@H](O)C[C@H](O[C@H]3[C@@H](O)C[C@H](O[C@H]4CC[C@@]5(C)[C@H](CC[C@@H]6[C@@H]5CC[C@]5(C)[C@@H](C7=CC(=O)OC7)CC[C@]65O)C4)O[C@@H]3C)O[C@@H]2C)C[C@H](O)[C@@H]1O` [DIGITOXIN], the IC50 is less than 10 µM.

For `CC[C@H](NC(=O)c1c(O)c(-c2ccccc2)nc2ccccc12)c1ccccc1` [TALNETANT], the IC50 was less than 10 µM.

As for `CC(C(=O)O)c1ccc2oc(-c3ccc(Cl)cc3)nc2c1` (stereo not drawn) [BENOXAPROFEN], the IC50 was found to be 104 µM.

On to `CCOCCNS(=O)(=O)c1ccc(Nc2nccc(-c3cnc(C)n3C(C)C)n2)cc1`, for which the IC50 is less than 10 µM.

For `CCCn1c(=O)[nH]c(=O)c2[nH]cnc21` [ENPROFYLLINE], the IC50 is more than 1000 µM.

In the case of `Cc1n[nH]c(C)c1Cc1sc2c(c1C(=O)N1C[C@H](O)CO1)c(=O)n(C)c(=O)n2C(C)C`, the IC50 was 703 µM.

`OCc1ccccc1O[C@@H]1O[C@H](CO)[C@@H](O)[C@H](O)[C@H]1O` [SALICIN]: the IC50 was more than 1000 µM.

For the compound `CC1(C)O[C@@H]2[C@@H](CO[C@@]3(COS(N)(=O)=O)OC(C)(C)O[C@@H]23)O1` [TOPIRAMATE], the IC50 is more than 1000 µM.

`CC1=C(CC(=O)O)c2cc(F)ccc2/C1=C\c1ccc([S+](C)[O-])cc1` (stereo not drawn): the IC50 was 63.7 µM.

As for `Cc1cccc(C)c1N=C1NCCCS1` [XYLAZINE], the IC50 is more than 1000 µM.

Regarding `O=C(NC1CCN(CCc2c[nH]c3ccccc23)CC1)c1ccccc1` [INDORAMIN], the IC50 is 109 µM.

For `C[C@]12CC[C@@H]3c4ccc(O)cc4CC[C@H]3[C@@H]1CCC2=O` [ESTRONE], the IC50 is more than 1000 µM.

For `CCOC(=O)[C@H](CCc1ccccc1)N[C@@H](C)C(=O)N1Cc2ccccc2C[C@H]1C(=O)O`, the IC50 amounted to 15.5 µM.

With `Clc1ccc(COC(Cn2ccnc2)c2ccc(Cl)cc2Cl)c(Cl)c1` (stereo not drawn) [MICONAZOLE], the IC50 was less than 10 µM.

As to `COc1ccc2c(C(=S)N(C)CC(=O)O)cccc2c1C(F)(F)F` [TOLRESTAT], the IC50 worked out at 185 µM.

With `Nc1ccccc1C(=O)NCC(=O)O`, the IC50 was more than 1000 µM.

In the case of `CC(=O)O[C@H]1C[C@@]2(C)[C@@H](C[C@@H](O)[C@H]3[C@@]4(C)CC[C@@H](O)[C@@H](C)[C@@H]4CC[C@@]32C)/C1=C(\CCC=C(C)C)C(=O)O` [FUSIDATE SODIUM], the IC50 was less than 10 µM.

Consider `CCCNC(C)(C)COC(=O)c1ccccc1` [MEPRYLCAINE], for which the IC50 was more than 1000 µM.

Take `COC(=O)C1=C(C)NC(C)=C(C(=O)OC(C)C)[C@@H]1c1cccc2nonc12` [(R)-ISRADIPINE]: the IC50 was less than 10 µM.

`C[C@@H]1C[C@H]2[C@@H]3CCC4=CC(=O)C=C[C@]4(C)[C@@]3(F)[C@@H](O)C[C@]2(C)[C@@]1(O)C(=O)CO` [DEXAMETHASONE]: the IC50 stood at 102 µM.
